Test results taken from publication PMC8568133, “Evaluation of bisphenylthiazoles as a promising class for combating multidrug-resistant fungal infections” (PLoS ONE, 2021).
Converted amounts (≈) assume the structure as drawn. Where two headings read alike, the source gives them in different places.

Columns and labels:
Type in all cases: cell-based
[1] = tested on: Candida albicans; test: Antifungal broth microdilution MIC (50% growth inhibition) and MFC; details: Candida albicans; for MIC: read-out: MIC
In short: (§1)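 Read-out was the lowest concentration inhibiting fungal growth by 50% (MIC) or reducing it by 99.9% after subculture onto YPD agar (MFC). Testing followed CLSI broth microdilution on clinical isolates at 35 °C, 24 h for Candida and 48 h for Cryptococcus.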

[2] = tested on: Candida auris; test: as above; details: for MIC: read-out: MIC
In short: as §1

[3] = tested on: Candida glabrata; test: as above; details: Nakaseomyces glabratus; for MIC: read-out: MIC
In short: (§2)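 MICs came from CLSI broth microdilution against clinical isolates, scored as 50% inhibition at 35 °C after 24 h (Candida) or 48 h (Cryptococcus). MFC is the lowest concentration cutting growth by 99.9% on YPD agar.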

[4] = tested on: Candida krusei; test: as above; details: Pichia kudriavzevii; for MIC: read-out: MIC
In short: as §2

[5] = tested on: Candida tropicalis; test: as above; details: Candida tropicalis, ATCC1369, C. tropicalis ATCC 1369
In short: as §2

[6] = tested on: Cryptococcus gattii; test: Antifungal broth microdilution MIC (50% growth inhibition, 48 h); details: Cryptococcus gattii, read-out: MIC
In short: as §1

[7] = ATCC10231, C. albicans ATCC 10231
[8] = ATCC66032, C. glabrata ATCC 66032

Structure (SMILES): Cc1nc(-c2ccc(-c3ccccc3)cc2)sc1-c1nnc(N[C@@H]2CCCC[C@@H]2N)o1 (relative stereo) [Compound 17, cis-N-{5-[2-((1,1’-Biphenyl)-4-yl)-4-methylthiazol-5-yl]-1,3,4-oxadiazol-2-yl}cyclo-hexane-1,2-diamine]
- MFC [1, 7]: > 64 µg/mL
- MIC [1, 7]: 4 µg/mL (≈ 9.27 µM)
- MIC ([1]; C. albicans NR-29448 (fluconazole-resistant)): 2 µg/mL (≈ 4.63 µM)
- MIC ([1]; C. albicans SS5314 (wild-type)): 1 µg/mL (≈ 2.32 µM)
- MFC ([1]; C. albicans NR-29448): > 64 µg/mL
- MFC ([2]; Candida auris 390): >64 µg/mL
- MIC ([2]; Candidozyma auris, C. auris 381): 1 µg/mL (≈ 2.32 µM)
- MIC ([2]; Candidozyma auris, C. auris 382): 2 µg/mL (≈ 4.63 µM)
- MIC ([2]; Candidozyma auris, C. auris 383): 1 µg/mL (≈ 2.32 µM)
- MIC ([2]; Candidozyma auris, C. auris 384): 1 µg/mL (≈ 2.32 µM)
- MIC ([2]; Candidozyma auris, C. auris 385): 2 µg/mL (≈ 4.63 µM)
- MIC ([2]; Candidozyma auris, C. auris 386): 1 µg/mL (≈ 2.32 µM)
- MIC ([2]; Candidozyma auris, C. auris 387): 2 µg/mL (≈ 4.63 µM)
- MIC ([2]; Candidozyma auris, C. auris 388): 1 µg/mL (≈ 2.32 µM)
- MIC ([2]; Candidozyma auris, C. auris 389): 2 µg/mL (≈ 4.63 µM)
- MIC ([2]; Candidozyma auris, C. auris 390): 1 µg/mL (≈ 2.32 µM)
- MFC ([2]; Candidozyma auris, Candida auris 389, read-out: MFC): > 64 µg/mL
- MFC [3, 8]: > 64 µg/mL
- MIC [3, 8]: 0.5 µg/mL (≈ 1.16 µM)
- MFC ([3]; C. glabrata ATCC MYA-2950): > 64 µg/mL
- MIC ([3]; C. glabrata ATCC MYA-2950): 0.5 µg/mL (≈ 1.16 µM)
- MIC ([4]; ATCC34135, C. krusei ATCC 34135): 1 µg/mL (≈ 2.32 µM)
- MFC ([4]; C. krusei CAB 396420): > 64 µg/mL
- MIC ([4]; C. krusei CAB 396420): 1 µg/mL (≈ 2.32 µM)
- MFC [5]: > 64 µg/mL
- MIC ([5]; read-out: MIC): 4 µg/mL (≈ 9.27 µM)
- MIC ([6]; C. gattii NR 43209): 0.5 µg/mL (≈ 1.16 µM)
- MIC ([6]; C. gattii NR 43210): 0.5 µg/mL (≈ 1.16 µM)
